Test in all cases: in vitro checkerboard method (Schachbrettmethode): MHK and FIC-Index
Type in all cases: cell-based

The test system of assay [1] is Serratia marcescens A 20019. To be noted: single substance; for MIC: Serratia marcescens, A20019, in vitro. The source says:
(§1) Zur Untersuchung der erfindungsgemäßen Kombination wurden mit typischen Vertretern der grampositiven und gramnegativen Keimgruppen in vitro Versuche durchgeführt. Mit der für Kombinationsversuche üblichen Methode, der sogenannten "Schachbrettmethode" (vgl. "Antibiotics in Laboratory Medicine", Editor Lorian, Baltimore London 1980, Seiten 300-309), wurden sowohl die minimalen Hemmkonzentrationen (MHK) als auch die Hemmgrenzen in den einzelnen Kombinationen bestimmt. Das Endergebnis wurde als FIC-Index (Fractional Inhibitory Concentration Index) ausgedrückt. Der FIC-Index berechnet sich nach folgender Formel: [formula]
(§2) Hierbei ist A bzw. B die niedrigste Konzentration der Verbindungen A bzw. B, die in Kombination mit der Verbindung B bzw. A eine Hemmwirkung zeigt. Dieser Wert wird durch die MHK der Verbindung A bzw. B dividiert. Der so erhaltene FIC-Index gibt Aufschluß über die Interaktionen von zwei Verbindungen in ihrer antibakteriellen Wirkung. FIC-Index-Zahlen, die kleiner als 1 sind, drücken eine synergistische Wirkung aus. Die mit dieser Methode ermittelten Resultate sind in den nachstehenden Tabellen zusammengestellt.
(§3) In den nachstehenden Tabellen sind in den ersten beiden Spalten die minimalen Hemmkonzentrationen der geprüften Verbindungen in Mikrogramm pro Milliliter aufgeführt. In einigen Fällen sind abweichende Konzentrationseinheiten angegeben, z.B. Nanogramm [ng] oder Milligramm [mg] pro Milliliter. Wenn ein FIC-Index nicht angegeben wurde, so bedeutet dies, daß aufgrund der Unwirksamkeit des einen Wirkstoffes keine Grenze zu ermitteln war.

The test system of assay [2] is Pseud. aeruginosa ATCC 9027. To be noted: Pseudomonas aeruginosa, ATCC9027, in vitro, single substance.
From the text: as §1, §2, §3

In assay [3] the test system is E. coli TEM. To be noted: Escherichia coli, read-out: MHK.
From the text: as §1, §2, §3

For assay [4], the system named is Salmonella oranienburg. The conditions noted are these: Salmonella enterica, single substance.
From the text: as §1, §2, §3

The test system of assay [5] is E. coli 0 55. To be noted: single substance; for MIC: Escherichia coli, 055, in vitro.
From the text: as §1, §2, §3

The subject of assay [6] is Salmonella paratyphi A. The conditions noted are these: Salmonella enterica, read-out: MHK.
From the text: as §1, §2, §3

Assay [7] deals with Pseud. aeruginosa 1771 m. The conditions noted are these: single substance; for MIC: Pseudomonas aeruginosa, 1771M.
From the text: as §1, §2, §3

Assay [8] concerns Pseud. aeruginosa NCTC 10701. To be noted: Pseudomonas aeruginosa, NCTC10701, in vitro, single substance.
From the text: as §1, §2, §3

Assay [9] has as its system Salmonella typhimurium. To be noted: for MIC: Salmonella enterica, TYPHIMURIUM, read-out: MHK.
From the text: as §1, §2, §3

In assay [10] the test system is Strept. faecium D. To be noted: Enterococcus faecium, single substance.
From the text: as §1, §2, §3

In assay [11] the test system is Proteus rettgeri 936. The conditions noted are these: single substance; for MIC: Providencia rettgeri, 936, in vitro.
From the text: as §1, §2, §3

Assay [12] deals with Hafnia alvei ATCC 11604.
From the text: as §1, §2, §3

Assay [13] concerns Micrococcus luteus ATCC 9341.
From the text: as §1, §2, §3

Assay [14] concerns Staph. aureus SG 511. The conditions noted are these: Staphylococcus aureus, SG511, single substance.
From the text: as §1, §2, §3

The test system of assay [15] is Serratia marcescens A 20460. To be noted: for MIC: Serratia marcescens.
From the text: as §1, §2, §3

Assay [16] relates to Klebsiella pneumoniae A 9977.
From the text: as §1, §2, §3

For assay [17], the system named is Strept. pyogenes A 77. To be noted: Streptococcus pyogenes, A77, single substance.
From the text: as §1, §2, §3

In assay [18] the test system is Enterobacter cloacae. The conditions noted are these: read-out: MHK.
From the text: as §1, §2, §3

Assay [19] relates to Bacillus subtilis ATCC 6633.
From the text: as §1, §2, §3

Assay [20] relates to E. coli 0 86. The conditions noted are these: Escherichia coli, 086, single substance, ng per millilitre (b7).
From the text: as §1, §2, §3

Setting [21] is: in vitro, single substance, Salmonella typhimurium.
The mark [22] stands for this setting: ATCC9341, in vitro, single substance, Micrococcus luteus ATCC 9341, read-out: MHK.

Like-named read-outs stand apart in the source and are kept apart here.

These results are taken from patent publication EP0098577A2, “Drugs for treating diarrhea caused by infection” (HOECHST AKTIENGESELLSCHAFT, priority 1982, dated 1984).

In the case of `CCOc1ccc2nc3cc(N)ccc3c(N)c2c1` [EAL, Ethacridinlactat], the MIC in [1] (mg per millilitre (b7)) amounted to 1000 µg/mL; in assay [2], 12.5 µg/mL; in assay [3], 12.5 µg/mL; in assay [4], 62.5 µg/mL; in assay [5] it was 6.25 µg/mL; in assay [6], 12.5 µg/mL. Also, the MIC in assay [7] was found to be 31.2 µg/mL; in assay [8], 12.5 µg/mL; in assay [9] (setting [21]), 25 µg/mL; in assay [10], 12.5 µg/mL; in assay [11], 31.2 µg/mL; in assay [12] (ATCC11604, in vitro, single substance, Hafnia alvei ATCC 11604, read-out: MHK) it was 62.5 µg/mL. The MIC in assay [13] (setting [22]) is 6.25 µg/mL; in assay [14], 6.25 µg/mL; in assay [15] (A20460, in vitro, single substance, Serratia marcescens A 20460, mg per millilitre (b7), read-out: MHK), above 1000 µg/mL; in assay [16] (A9977, in vitro, single substance, Klebsiella pneumoniae A 9977, read-out: MHK) it was 125 µg/mL. Also, the MHK in assay [1] (in vitro, mg per millilitre (b7)) is recorded as >1,0 mg; in assay [5] (in vitro) it was 12,5 µg/ml; in [7], 62,5 µg/ml; in assay [9] (setting [21]), 50,0 µg/ml; in [11] (in vitro), 62,5 µg/ml; in assay [15] (in vitro, single substance, Serratia marcescens A 20460, mg per millilitre (b7)), 1,0 mg.
As for `COn1cc(C(=O)O)c(=O)c2cc3c(cc21)OCO3` [Miloxacin], the MIC in [2] is 25 µg/mL; in [17] (mg per millilitre (b7)), above 1000 µg/mL; in assay [18] (in vitro, single substance), 2.5 µg/mL; in [7] it was 50 µg/mL; in [8] it was 31.2 µg/mL; in assay [10] (mg per millilitre (b7)), above 1000 µg/mL. The MIC in assay [13] (ATCC9341, in vitro, single substance, Micrococcus luteus ATCC 9341, mg per millilitre (b7), read-out: MHK) was above 1000 µg/mL; in [14] it was 6.25 µg/mL.
As to `CCn1cc(C(=O)O)c(=O)c2ccc(C)nc21` [Nalidixinsäure], the MIC in assay [2] is 500 µg/mL; in assay [17] (mg per millilitre (b7)) it was above 1000 µg/mL; in assay [18], 6.25 µg/mL; in [7], 100 µg/mL; in [19] (Bacillus subtilis, ATCC6633, read-out: MHK) it was 6.25 µg/mL; in assay [8], 250 µg/mL. Further, the MIC in [10] was 500 µg/mL; in assay [13] (Micrococcus luteus, ATCC9341, read-out: MHK) it was above 1000 µg/mL; in [14], 50 µg/mL; in [15] (A20460, read-out: MHK), 6.25 µg/mL; in assay [16] (Klebsiella pneumoniae, A9977, read-out: MHK), 6.25 µg/mL.
Regarding `CCn1cc(C(=O)O)c(=O)c2cc(F)c(N3CCNCC3)cc21` [Norfloxacin], the MIC in [1] (ng per millilitre (b7)) worked out at 0.0781 µg/mL; in [3] it was 0.0391 µg/mL; in assay [4] (ng per millilitre (b7)) it was 0.0781 µg/mL; in assay [5] (ng per millilitre (b7)) it was 0.0391 µg/mL; in [6] it was 0.0195 µg/mL; in assay [17] it was 2.5 µg/mL. For the same compound, the MIC turned out to be 0.0195 µg/mL in [9]; 1.25 µg/mL in [10]; 0.0391 µg/mL in assay [20]; 0.0781 µg/mL in assay [11] (ng per millilitre (b7)); 0.0195 µg/mL in assay [12] (Hafnia alvei, ATCC11604, read-out: MHK); 12.5 µg/mL in assay [13] (setting [22]).
In the case of `CCn1cc(C(=O)O)c(=O)c2cc3occc3nc21` [OFNC, 5-Äthyl-5,8-dihydro-8-oxofuran(3,2-b)(1,8)-naphthyridin-7-carbonsäure], the MIC turned out to be 0.0781 µg/mL in [4] (ng per millilitre (b7)); 0.0391 µg/mL in [6]; 125 µg/mL in assay [17]; 0.0488 µg/mL in assay [19] (ATCC6633, in vitro, single substance, Bacillus subtilis ATCC 6633, ng per millilitre (b7), read-out: MHK); 0.0781 µg/mL in assay [9] (in vitro, single substance, Salmonella typhimurium, ng per millilitre (b7)); 31.2 µg/mL in [10]. The MIC in assay [20] was found to be 0.0625 µg/mL; in [11] (ng per millilitre (b7)) it was 0.0312 µg/mL; in assay [12] (ATCC11604, in vitro, single substance, Hafnia alvei ATCC 11604, ng per millilitre (b7), read-out: MHK), 0.0391 µg/mL; in assay [13] (setting [22]), 31.2 µg/mL; in assay [16] (A9977, in vitro, single substance, Klebsiella pneumoniae A 9977, ng per millilitre (b7), read-out: MHK), 0.0781 µg/mL.
